Values quoted from earlier work as cited in patent US6909006B1, “Cyclopropylindole derivatives” (priority 1999, dated 2005).

Test system: tumour cells growing in vitro

COc1c(O)c2c(c3cc(C(=O)N4CCc5c4c(O)c(OC)c4[nH]c(C(=O)N6CC7CC78C6=CC(=O)c6[nH]cc(C)c68)cc54)[nH]c13)CCN2C(N)=O (stereo not shown) [CC-1065]
IC50s in tumour cells growing in vitro: low pM range
